Drawing on patent US10072003B2, “Tetrahydronaphthyridine derivatives as mGluR2-negative allosteric modulators, compositions, and their use” (Merck Sharp & Dohme Corp., priority 2014, dated 2018), this text covers IC50 for 30 compounds.

recombinant human mGluR2, sequence (Q14416 19-872): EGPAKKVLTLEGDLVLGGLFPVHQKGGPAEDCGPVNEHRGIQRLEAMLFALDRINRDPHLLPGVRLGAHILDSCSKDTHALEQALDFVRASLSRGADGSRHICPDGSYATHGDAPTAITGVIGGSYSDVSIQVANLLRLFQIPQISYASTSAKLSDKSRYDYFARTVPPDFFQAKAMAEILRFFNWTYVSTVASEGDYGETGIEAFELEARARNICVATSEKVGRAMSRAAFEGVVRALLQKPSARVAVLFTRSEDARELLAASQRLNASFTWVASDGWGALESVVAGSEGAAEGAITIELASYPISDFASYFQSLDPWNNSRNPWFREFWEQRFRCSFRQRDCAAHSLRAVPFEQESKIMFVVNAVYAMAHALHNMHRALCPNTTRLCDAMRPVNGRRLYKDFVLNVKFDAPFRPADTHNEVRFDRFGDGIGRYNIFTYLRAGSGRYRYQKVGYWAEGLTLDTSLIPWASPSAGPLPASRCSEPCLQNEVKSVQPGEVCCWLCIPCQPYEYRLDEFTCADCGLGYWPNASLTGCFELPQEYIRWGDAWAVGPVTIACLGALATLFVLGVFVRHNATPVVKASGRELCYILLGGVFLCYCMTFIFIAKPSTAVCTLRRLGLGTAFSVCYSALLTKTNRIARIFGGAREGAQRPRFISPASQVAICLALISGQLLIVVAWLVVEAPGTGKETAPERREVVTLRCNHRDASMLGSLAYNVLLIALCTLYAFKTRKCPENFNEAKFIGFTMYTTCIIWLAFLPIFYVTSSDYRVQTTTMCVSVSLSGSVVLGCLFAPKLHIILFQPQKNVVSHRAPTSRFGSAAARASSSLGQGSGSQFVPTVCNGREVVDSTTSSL

The target in this assay is recombinant human mGluR2 (Homo sapiens (Human), UniProt Q14416). In words: FLIPR Ca2+ mobilization antagonist assay in CHO dhfr- cells expressing human mGluR2 and Gα16. It counts as cell-based. The conditions noted are these: antagonist response after addition of 2,500 nM glutamate, Fluo-4 AM, FLIPR384. In outline:
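CHO dhfr- cells stably co-expressing human mGluR2 and Gα16, Fluo-4 AM loaded, preincubated with compound, then challenged with 2,500 nM glutamate; Ca2+ response read by FLIPR. Maximum calcium response vs concentration fitted to four-parameter logistic for IC50.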
On the technique in general: Calcium flux is commonly read through the fluorescence of an indicator in the cells.
On to `Cc1cn(-c2cc(C(N)=O)nc3c2CCN(Cc2ccnc(C(F)(F)F)c2)C3)nc1C` [Example 5-7, 4-(3,4-dimethyl-1H-pyrazol-1-yl)-7-{[2-(trifluoromethyl)pyridin-4-yl]methyl}-5,6,7,8-tetrahydro-1,7-naphthyridine-2-carboxamide], for which the IC50 – broadly, the concentration that inhibits the measured activity by half – stood at 42.7 nM. The figure for `COc1cnn(-c2cc(C(N)=O)nc3c2CCN(Cc2ccnc(C(F)(F)F)c2)C3)c1` [Example 5-8, 4-(4-methoxy-1H-pyrazol-1-yl)-7-{[2-(trifluoromethyl)pyridin-4-yl]methyl}-5,6,7,8-tetrahydro-1,7-naphthyridine-2-carboxamide] is 88.7 nM; for `NC(=O)c1cc(-n2cc(C(F)(F)F)cn2)c2c(n1)CN(Cc1ccnc(C(F)(F)F)c1)CC2` [Example 5-10, 4-[4-(trifluoromethyl)-1H-pyrazol-1-yl]-7-{[2-(trifluoromethyl)pyridin-4-yl]methyl}-5,6,7,8-tetrahydro-1,7-naphthyridine-2-carboxamide] it is 32 nM. For `NC(=O)c1cc(-c2ccc(Cl)cn2)c2c(n1)CN(Cc1ccnc(C(F)(F)F)c1)CC2` [Example 6-1, 4-(5-chloropyridin-2-yl)-7-((2-(trifluoromethyl)pyridin-4-yl)methyl)-5,6,7,8-tetrahydro-1,7-naphthyridine-2-carboxamide] the value was 11.7 nM. As to `Cc1csc(-c2cc(C(N)=O)nc3c2CCN(Cc2ccnc(C(F)(F)F)c2)C3)n1` [Example 6-2, 4-(4-methyl-1,3-thiazol-2-yl)-7-{[2-(trifluoromethyl)pyridin-4-yl]methyl}-5,6,7,8-tetrahydro-1,7-naphthyridine-2-carboxamide], the IC50 is 1150 nM. The figure for `Cc1ncc(-c2cc(C(N)=O)nc3c2CCN(Cc2ccnc(OC(F)F)c2)C3)s1` [Example 6-3, 7-{[2-(difluoromethoxy)pyridin-4-yl]methyl}-4-(2-methyl-1,3-thiazol-5-yl)-5,6,7,8-tetrahydro-1,7-naphthyridine-2-carboxamide] is 18.6 nM; for `Cc1ncc(-c2cc(C(N)=O)nc3c2CCN(Cc2ccnn2C)C3)s1` [Example 6-4, 7-[(1-methyl-1H-pyrazol-5-yl)methyl]-4-(2-methyl-1,3-thiazol-5-yl)-5,6,7,8-tetrahydro-1,7-naphthyridine-2-carboxamide] it is 119 nM. For `NC(=O)c1cc(-c2ccc(Cl)cc2F)c2c(n1)CN(Cc1ncon1)CC2` [Example 9-1, 7-((1,2,4-oxadiazol-3-yl)methyl)-4-(4-chloro-2-fluorophenyl)-5,6,7,8-tetrahydro-1,7-naphthyridine-2-carboxamide] the value was 27.7 nM. The figure for `Cc1nc(CN2CCc3c(-c4ccc(Cl)cc4F)cc(C(N)=O)nc3C2)no1` [Example 9-2, 4-(4-chloro-2-fluorophenyl)-7-[(5-methyl-1,2,4-oxadiazol-3-yl)methyl]-5,6,7,8-tetrahydro-1,7-naphthyridine-2-carboxamide] is 9.7 nM; for `COc1nccc(CN2CCc3c(-c4ccc(Cl)cc4F)cc(C(N)=O)nc3C2)n1` [Example 9-3, 4-(4-chloro-2-fluorophenyl)-7-[(2-methoxypyrimidin-4-yl)methyl]-5,6,7,8-tetrahydro-1,7-naphthyridine-2-carboxamide] it is 14.2 nM. On to `Cn1ncnc1CN1CCc2c(-c3ccc(Cl)cc3F)cc(C(N)=O)nc2C1` [Example 9-4, 4-(4-chloro-2-fluorophenyl)-7-[(1-methyl-1H-1,2,4-triazol-5-yl)methyl]-5,6,7,8-tetrahydro-1,7-naphthyridine-2-carboxamide], for which the IC50 worked out at 23.9 nM. The figure for `Cc1noc(CN2CCc3c(-c4ccc(Cl)cc4F)cc(C(N)=O)nc3C2)n1` [Example 9-5, 4-(4-chloro-2-fluorophenyl)-7-[(3-methyl-1,2,4-oxadiazol-5-yl)methyl]-5,6,7,8-tetrahydro-1,7-naphthyridine-2-carboxamide] is 12.7 nM; for `CC(C)c1noc(CN2CCc3c(-c4ccc(Cl)cc4F)cc(C(N)=O)nc3C2)n1` [Example 9-6, 4-(4-chloro-2-fluorophenyl)-7-{[3-(1-methylethyl)-1,2,4-oxadiazol-5-yl]methyl}-5,6,7,8-tetrahydro-1,7-naphthyridine-2-carboxamide] it is 8 nM. With `COc1ccnc(CN2CCc3c(-c4ccc(Cl)cc4F)cc(C(N)=O)nc3C2)n1` [Example 9-7, 4-(4-chloro-2-fluorophenyl)-7-[(4-methoxypyrimidin-2-yl)methyl]-5,6,7,8-tetrahydro-1,7-naphthyridine-2-carboxamide], the IC50 was 11.7 nM. For `CC1(CN2CCc3c(-c4ccc(Cl)cc4F)cc(C(N)=O)nc3C2)COC1` [Example 10-1, 4-(4-chloro-2-fluorophenyl)-7-((3-methyloxetan-3-yl)methyl)-5,6,7,8-tetrahydro-1,7-naphthyridine-2-carboxamide] the value was 31 nM. On to `COc1ncc(CN2CCc3c(-c4ccc(Cl)cc4F)cc(C(N)=O)nc3C2)cn1` [Example 10-2, 4-(4-chloro-2-fluorophenyl)-7-[(2-methoxypyrimidin-5-yl)methyl]-5,6,7,8-tetrahydro-1,7-naphthyridine-2-carboxamide], for which the IC50 came to 7.4 nM. For `NC(=O)c1cc(-c2ccc(Cl)cc2F)c2c(n1)CN(Cc1cccnc1)CC2` [Example 10-3, 4-(4-chloro-2-fluorophenyl)-7-(pyridin-3-ylmethyl)-5,6,7,8-tetrahydro-1,7-naphthyridine-2-carboxamide] the value was 12 nM; for `Cn1cc(CN2CCc3c(-c4ccc(Cl)cc4F)cc(C(N)=O)nc3C2)cn1` [Example 10-4, 4-(4-chloro-2-fluorophenyl)-7-[(1-methyl-1H-pyrazol-4-yl)methyl]-5,6,7,8-tetrahydro-1,7-naphthyridine-2-carboxamide], 14.6 nM; for `NC(=O)c1cc(-c2c(F)cccc2F)c2c(n1)CN(Cc1ccnc(C(F)(F)F)n1)CC2` [Example 11-1, 4-(2,6-Difluorophenyl)-7-((2-(trifluoromethyl)pyrimidin-4-yl)methyl)-5,6,7,8-tetrahydro-1,7-naphthyridine-2-carboxamide], 25.8 nM. As to `NC(=O)c1cc(-c2cc(F)ccc2F)c2c(n1)CN(Cc1ccnc(C(F)(F)F)n1)CC2` [Example 11-2, 4-(2,5-difluorophenyl)-7-{[2-(trifluoromethyl)pyrimidin-4-yl]methyl}-5,6,7,8-tetrahydro-1,7-naphthyridine-2-carboxamide], the IC50 is 52.1 nM. The figure for `NC(=O)c1cc(-c2ccc(Cl)cc2F)c2c(n1)CN(Cc1ccnc(C(F)(F)F)n1)CC2` [Example 11-3, 4-(4-chloro-2-fluorophenyl)-7-{[2-(trifluoromethyl)pyrimidin-4-yl]methyl}-5,6,7,8-tetrahydro-1,7-naphthyridine-2-carboxamide] is 7.2 nM; for `NC(=O)c1cc(-c2ccccc2Cl)c2c(n1)CN(Cc1ccnc(C(F)(F)F)n1)CC2` [Example 11-4, 4-(2-chlorophenyl)-7-{[2-(trifluoromethyl)pyrimidin-4-yl]methyl}-5,6,7,8-tetrahydro-1,7-naphthyridine-2-carboxamide] it is 19.7 nM. On to `NC(=O)c1cc(-c2ccc(F)cc2Cl)c2c(n1)CN(Cc1ccnc(C(F)(F)F)n1)CC2` [Example 11-5, 4-(2-chloro-4-fluorophenyl)-7-{[2-(trifluoromethyl)pyrimidin-4-yl]methyl}-5,6,7,8-tetrahydro-1,7-naphthyridine-2-carboxamide], for which the IC50 turned out to be 17.6 nM. For `NC(=O)c1cc(-c2c(F)cc(F)cc2F)c2c(n1)CN(Cc1ccnc(C(F)(F)F)n1)CC2` [Example 11-6, 7-{[2-(trifluoromethyl)pyrimidin-4-yl]methyl}-4-(2,4,6-trifluorophenyl)-5,6,7,8-tetrahydro-1,7-naphthyridine-2-carboxamide] the value was 13.2 nM; for `NC(=O)c1cc(-c2c(F)cccc2Cl)c2c(n1)CN(Cc1ccnc(C(F)(F)F)n1)CC2` [Example 11-7, 4-(2-chloro-6-fluorophenyl)-7-{[2-(trifluoromethyl)pyrimidin-4-yl]methyl}-5,6,7,8-tetrahydro-1,7-naphthyridine-2-carboxamide], 45.2 nM. For `NC(=O)c1cc(-c2ccccc2F)c2c(n1)CN(Cc1ccnc(C(F)(F)F)n1)CC2` [Example 11-8, 4-(2-fluorophenyl)-7-{[2-(trifluoromethyl)pyrimidin-4-yl]methyl}-5,6,7,8-tetrahydro-1,7-naphthyridine-2-carboxamide] the value was 11.8 nM. The figure for `NC(=O)c1cc(-c2c(F)cc(Cl)cc2F)c2c(n1)CN(Cc1ccnc(C(F)(F)F)n1)CC2` [Example 11-9, 4-(4-chloro-2,6-difluorophenyl)-7-{[2-(trifluoromethyl)pyrimidin-4-yl]methyl}-5,6,7,8-tetrahydro-1,7-naphthyridine-2-carboxamide] is 6.5 nM.

For `NC(=O)c1cc(-c2ccc(F)cc2)c2c(n1)CN(Cc1cc(C(F)(F)F)ncn1)CC2` [Example 11-10, 4-(4-fluorophenyl)-7-{[6-(trifluoromethyl)pyrimidin-4-yl]methyl}-5,6,7,8-tetrahydro-1,7-naphthyridine-2-carboxamide], the IC50 was found to be 7.6 nM. Consider `NC(=O)c1cc(-c2c(F)cc(F)cc2F)c2c(n1)CN(Cc1cc(C(F)(F)F)ncn1)CC2` [Example 11-11, 7-{[6-(trifluoromethyl)pyrimidin-4-yl]methyl}-4-(2,4,6-trifluorophenyl)-5,6,7,8-tetrahydro-1,7-naphthyridine-2-carboxamide], for which the IC50 came out at 26.1 nM. The figure for `NC(=O)c1cc(-c2ccc(Cl)cc2F)c2c(n1)CN(Cc1cc(C(F)(F)F)ncn1)CC2` [Example 11-12, 4-(4-chloro-2-fluorophenyl)-7-{[6-(trifluoromethyl)pyrimidin-4-yl]methyl}-5,6,7,8-tetrahydro-1,7-naphthyridine-2-carboxamide] is 10 nM.
